US10654837B2, “Sulphamoylaryl derivatives and use thereof as medicaments for the treatment of liver fibrosis” (Janssen Pharmaceutica NV, priority 2017, dated 2020)

Molecular target: T1, 5HTR2B (Homo sapiens, UniProt P41595)
T1 construct: host or cells: human Maverick/293 cells
Assay: 5HTR2B antagonist activity, calcium mobilization assay in human Maverick/293 cells (serotonin as agonist)
Type: cell-based
Details: intracellular calcium, emission 525 nm, read-out: Ca assay IC50
Protocol: The 5HTR2B antagonist activity was measured using human Maverick/293 cells in a calcium mobilization assay. The measurement starting with plating human Maverick/293 cells (log phase) onto 96-well black and incubate at 37° C. overnight, Followed by starving cells for 2 h by changing complete medium to DMEM without FBS, removing the medium from the 96-well plate. Loading staining calcium buffer into each well and incubated the plate at 37° C. for 50 min. After removal of staining calcium buffer, diluted antagonist were added into the well, incubate 15 to 30 minutes. Dispense serotonin as the 5HTR2B agonists into each well. Intracellular calcium concentration is recorded for 80 seconds by monitoring an emission at a wavelength of 525 nm with an excitation wavelength of 485 nm. Inhibition efficiency of the cell line was determined following the equation: % Inhibition=100%−(D−B)/(S−B)*100%. (S: The peak value in the presence of agonist serotonin; D: The peak value in the presence of different dilution compound or serotonin; B: The peak value in the presence of calcium HBSS buffer only). […] A dose response curve was fitted using nonlinear regression model with a sigmoidal dose response. The IC50 was automatically produced by GraphPad Prism 5.0.

T1 sequence (P41595 whole entry): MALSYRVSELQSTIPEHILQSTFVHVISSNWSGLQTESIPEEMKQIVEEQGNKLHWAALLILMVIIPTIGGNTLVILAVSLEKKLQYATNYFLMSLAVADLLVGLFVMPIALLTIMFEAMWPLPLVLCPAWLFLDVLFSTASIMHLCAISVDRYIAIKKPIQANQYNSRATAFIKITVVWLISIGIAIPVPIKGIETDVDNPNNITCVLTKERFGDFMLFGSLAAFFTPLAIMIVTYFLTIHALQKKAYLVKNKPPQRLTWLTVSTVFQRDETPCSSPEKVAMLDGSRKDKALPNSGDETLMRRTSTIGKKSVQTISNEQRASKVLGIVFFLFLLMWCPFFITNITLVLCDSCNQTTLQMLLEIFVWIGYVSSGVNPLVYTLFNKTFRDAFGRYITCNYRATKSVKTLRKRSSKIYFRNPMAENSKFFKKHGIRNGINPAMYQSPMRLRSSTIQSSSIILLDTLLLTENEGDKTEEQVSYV

IC50 [nM] | Structure (SMILES)
0.7 | COc1ccc(S(=O)(=O)N[C@H]2CCNC2)cc1C(=O)Nc1ccc(F)c(C)c1 [Compound 187, (S)—N-(4-fluoro-3-methylphenyl)-2-methoxy-5-(N-(pyrrolidin-3-yl)sulfamoyl) benzamide]
0.2 | COc1ccc(S(=O)(=O)N[C@H]2CCOC2)cc1C(=O)Nc1ccc(F)cc1Cl [Compound 66, (S)—N-(2-Chloro-4-fluorophenyl)-2-methoxy-5-(N-(tetrahydrofuran-3-yl)sulfamoyl)benzamide]
28 | COc1ccc(S(=O)(=O)N[C@H]2CCOC2)cc1C(=O)Nc1ccc(Br)cc1 [Compound 125, (S)—N-(4-Bromophenyl)-2-methoxy-5-(N-(tetrahydrofuran-3-yl)sulfamoyl) benzamide]
163 | COc1ccc(S(=O)(=O)N[C@H]2CCOC2)cc1C(=O)Nc1ncc(F)cc1C [Compound 132, (S)—N-(5-fluoro-3-methylpyridin-2-yl)-2-methoxy-5-(N-(tetrahydrofuran-3-yl)sulfamoyl)benzamide]
13 | COc1ccc(S(=O)(=O)N[C@H]2CCOC2)cc1NC(=O)c1ccc(F)c(C)c1 [Compound 203, (S)-4-Fluoro-N-(2-methoxy-5-(N-(tetrahydrofuran-3-yl)sulfamoyl)phenyl)-3-methylbenzamide]
9.9 | COc1ccc(S(=O)(=O)N[C@H]2CCOC2)cc1C(=O)Nc1ccccc1OC(F)(F)F [Compound 150, (S)-2-Methoxy-5-(N-(tetrahydrofuran-3-yl)sulfamoyl)-N-(2-(trifluoromethoxy)phenyl)benzamide]
29 | COc1ccc(S(=O)(=O)N[C@H]2CCOC2)cc1C(=O)Nc1cc(F)cc(C#N)c1 [Compound 87, (S)—N-(3-Cyano-5-fluorophenyl)-2-methoxy-5-(N-(tetrahydrofuran-3-yl)sulfamoyl)benzamide]
0.8 | COc1ccc(S(=O)(=O)N[C@H]2CCOC2)cc1C(=O)Nc1cc(F)c(F)cc1F [Compound 74, (S)-2-Methoxy-5-(N-(tetrahydrofuran-3-yl)sulfamoyl)-N-(2,4,5-trifluorophenyl) benzamide]
0.8 | COc1ccc(S(=O)(=O)N[C@H]2CCOC2)cc1C(=O)Nc1ccc(Cl)c(F)c1 [Compound 115, (S)—N-(4-Chloro-3-fluorophenyl)-2-methoxy-5-(N-(tetrahydrofuran-3-yl)sulfamoyl)benzamide]
32 | COc1ccc(S(=O)(=O)N[C@H]2CCOC2)cc1C(=O)Nc1c(Cl)cccc1Cl [Compound 81, (S)—N-(2,6-Dichlorophenyl)-2-methoxy-5-(N-(tetrahydrofuran-3-yl)sulfamoyl) benzamide]
0.4 | COc1ccc(S(=O)(=O)NC2CC[C@H](O)C2)cc1C(=O)Nc1ccc(F)c(C(F)F)c1 (stereo in doubt) [Compound 33b, N-(3-(Difluoromethyl)-4-fluorophenyl)-5-(N-((cis)-3-hydroxycyclopentyl)sulfamoyl)-2-methoxybenzamide]
84 | COc1ccc(S(=O)(=O)N[C@H]2CCOC2)cc1C(=O)Nc1cc(F)cc(F)c1Cl [Compound 96, (S)—N-(2-Chloro-3,5-difluorophenyl)-2-methoxy-5-(N-(tetrahydrofuran-3-yl)sulfamoyl)benzamide]
2.1 | COc1ccc(S(=O)(=O)N[C@H]2CCOC2)cc1C(=O)Nc1c(F)cccc1OC [Compound 130, (S)—N-(2-Fluoro-6-methoxyphenyl)-2-methoxy-5-(N-(tetrahydrofuran-3-yl)sulfamoyl)benzamide]
186 | COc1ccc(S(=O)(=O)N[C@H]2CCOC2)cc1C(=O)Nc1cc(F)c(F)c(F)c1 [Compound 97, (S)-2-Methoxy-5-(N-(tetrahydrofuran-3-yl)sulfamoyl)-N-(3,4,5-trifluorophenyl) benzamide]
0.2 | COc1ccc(S(=O)(=O)N[C@H]2CCOC2)cc1C(=O)Nc1ccccc1Br [Compound 123, (S)—N-(2-Bromophenyl)-2-methoxy-5-(N-(tetrahydrofuran-3-yl)sulfamoyl) benzamide]
5.4 | COc1ccc(S(=O)(=O)N[C@H]2CCOC2)cc1C(=O)Nc1ccc(F)cn1 [Compound 116, (S)—N-(5-Fluoropyridin-2-yl)-2-methoxy-5-(N-(tetrahydrofuran-3-yl)sulfamoyl) benzamide]
0.4 | [2H]C([2H])([2H])Oc1ccc(S(=O)(=O)N[C@H]2CCOC2)cc1C(=O)Nc1ccc(F)c(C(F)F)c1 [Compound 192, (S)—N-(3-(Difluoromethyl)-4-fluorophenyl)-2-(methoxy-d3)-5-(N-(tetrahydrofuran-3-yl)sulfamoyl)benzamide]

More lines, now with the values behind:

Structure (SMILES) | IC50 [nM]
COc1ccc(S(=O)(=O)N[C@H](C)CO)cc1C(=O)Nc1ccc(F)c(C)c1 [Compound 10b, (R)—N-(4-Fluoro-3-methylphenyl)-5-(N-(1-hydroxypropan-2-yl)sulfamoyl)-2-methoxybenzamide] | 12
COc1ccc(S(=O)(=O)N[C@H]2CCOC2)cc1C(=O)Nc1ncc(C)s1 [Compound 84, (S)-2-methoxy-N-(5-methylthiazol-2-yl)-5-(N-(tetrahydrofuran-3-yl)sulfamoyl) benzamide] | 716
COc1ccc(S(=O)(=O)N[C@H]2CCNC2)cc1C(=O)Nc1ccc(F)c(C)n1 [Compound 175, (S)—N-(5-Fluoro-6-methylpyridin-2-yl)-2-methoxy-5-(N-(pyrrolidin-3-yl)sulfamoyl)benzamide] | 1.6
COc1ccccc1NC(=O)c1cc(S(=O)(=O)N[C@H]2CCNC2)ccc1OC [Compound 184, (S)-2-methoxy-N-(2-methoxyphenyl)-5-(N-(pyrrolidin-3-yl)sulfamoyl) benzamide] | 0.3
COc1ccc(S(=O)(=O)NC2CCCOC2)cc1C(=O)Nc1ccc(F)c(C)n1 (single isomer, unassigned) [Compound 16a, (S*)—N-(5-Fluoro-6-methylpyridin-2-yl)-2-methoxy-5-(N-(tetrahydro-2H-pyran-3-yl)sulfamoyl)benzamide] | 1.1
COc1ccc(S(=O)(=O)N[C@H]2C[C@@H](O)C2)cc1C(=O)Nc1ccc(F)cn1 [Compound 157, N-(5-Fluoropyridin-2-yl)-5-(N-((cis)-3-hydroxycyclobutyl)sulfamoyl)-2-methoxybenzamide] | 53
COc1ccc(S(=O)(=O)N[C@H]2C[C@@H](C)C2)cc1C(=O)Nc1ccc(F)c(C)c1 [Compound 7a, N-(4-Fluoro-3-methylphenyl)-2-methoxy-5-(N-((cis)-3-methylcyclobutyl)sulfamoyl)benzamide] | 3.8
COc1ccc(S(=O)(=O)NC(C)C(F)(F)F)cc1C(=O)Nc1ccc(F)c(C)n1 (single isomer, unassigned) [Compound 29b, (R*)—N-(5-Fluoro-6-methylpyridin-2-yl)-2-methoxy-5-(N-(1,1,1-trifluoropropan-2-yl)sulfamoyl)benzamide] | 4.6
COc1ccc(S(=O)(=O)N[C@H]2CCOC2)cc1C(=O)Nc1ncccc1C [Compound 133, (S)-2-Methoxy-N-(3-methylpyridin-2-yl)-5-(N-(tetrahydrofuran-3-yl)sulfamoyl) benzamide] | 405
COc1ccc(S(=O)(=O)N[C@H]2CCNC2)cc1C(=O)Nc1ccc(F)cc1 [Compound 178, (S)—N-(4-Fluorophenyl)-2-methoxy-5-(N-(pyrrolidin-3-yl)sulfamoyl)benzamide] | 0.3
COc1ccc(S(=O)(=O)N[C@H]2C[C@@H](O)C2)cc1C(=O)Nc1ccc(F)c(C(F)F)n1 [Compound 174b, N-(6-(Difluoromethyl)-5-fluoropyridin-2-yl)-5-(N-((cis)-3-hydroxycyclobutyl)sulfamoyl)-2-methoxybenzamide] | 1.7
COc1ccc(S(=O)(=O)NC2(C(F)(F)F)CC2)cc1C(=O)Nc1ccc(F)c(C)n1 [Compound 168, N-(5-fluoro-6-methylpyridin-2-yl)-2-methoxy-5-(N-(1-(trifluoromethyl)cyclopropyl)sulfamoyl)benzamide] | 3.9
COc1ccc(S(=O)(=O)N[C@H]2C[C@H](O)C2)cc1C(=O)Nc1cc(C)ccc1Cl [Compound 137a, N-(2-chloro-5-methylphenyl)-5-(N-((trans)-3-hydroxycyclobutyl)sulfamoyl)-2-methoxybenzamide] | 17.1
COc1ccc(S(=O)(=O)N[C@H]2CCOC2)cc1C(=O)Nc1nccs1 [Compound 64, (S)-2-Methoxy-5-(N-(tetrahydrofuran-3-yl)sulfamoyl)-N-(thiazol-2-yl) benzamide] | 65
COc1ccc(S(=O)(=O)N[C@H]2CCOC2)cc1C(=O)Nc1ccncn1 [Compound 165, (S)-2-Methoxy-N-(pyrimidin-4-yl)-5-(N-(tetrahydrofuran-3-yl)sulfamoyl) benzamide] | 511
COc1ccc(S(=O)(=O)N[C@H](C)CO)cc1C(=O)Nc1ccc(F)cc1 [Compound 52b, (R)—N-(4-fluorophenyl)-5-(N-(1-hydroxypropan-2-yl)sulfamoyl)-2-methoxybenzamide] | 4.5
COc1ccc(S(=O)(=O)N[C@H]2CCOC2)cc1C(=O)Nc1cccc2c1cnn2C [Compound 110, (S)-2-Methoxy-N-(1-methyl-1H-indazol-4-yl)-5-(N-(tetrahydrofuran-3-yl)sulfamoyl)benzamide] | 10
COc1ccc(S(=O)(=O)N[C@H]2CCOC2)cc1C(=O)Nc1ncccc1Cl [Compound 121, (S)—N-(3-Chloropyridin-2-yl)-2-methoxy-5-(N-(tetrahydrofuran-3-yl)sulfamoyl) benzamide] | 3.8
